Structures can show the parent of a compound that is named as a salt.
These molecules were tested against T1, Human ATX protein (Homo sapiens, UniProt Q13822) (assay: ATX biochemical assay (FRET, FS-3 substrate)). Settings: FRET assay, FS-3 2 μM, ATX 1.0 μg/mL, 30 minutes preincubation, 2 hours reaction at room temperature; read-out: IC50.
T1 construct: made in house
In short: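 In-house human ATX (1.0 μg/mL final) was preincubated with compound for 30 min at room temperature in Tris buffer pH 7.4 with 1 mg/mL fatty acid free-BSA. FS-3 substrate (2 μM final) was then hydrolysed for 2 hours at room temperature, protected from light, and read as fluorescence at ex 485/em 538 nm.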

Compound	IC50
O=C(CC1CCCNC1)N1CCc2c(C(F)(F)F)nn(Cc3ccc(F)cc3)c2C1 (stereo not shown) [Example 9-4, 1-(1-(4-Fluorobenzyl)-3-(trifluoromethyl)-4,5-dihydro-1H-pyrazolo[3,4-c]pyridin-6(7H)-yl)-2-(piperidin-3-yl)ethanone HCl salt]	≤ 100 nM
CC1CC(CC(=O)N2CCc3c(C(F)(F)F)nn(Cc4ccc(Cl)cc4F)c3C2)CCN1 (stereo not shown) [Example 9-5, 1-(1-(4-Chloro-2-fluorobenzyl)-3-(trifluoromethyl)-4,5-dihydro-1H-pyrazolo[3,4-c]pyridin-6(7H)-yl)-2-(2-methylpiperidin-4-yl)ethanone TFA salt]	≤ 100 nM
CC1(C)CC(CC(=O)N2CCc3c(C(F)(F)F)nn(Cc4ccc(Cl)cc4F)c3C2)CCN1 (stereo not shown) [Example 9-6, 1-(1-(4-Chloro-2-fluorobenzyl)-3-(trifluoromethyl)-4,5-dihydro-1H-pyrazolo[3,4-c]pyridin-6(7H)-yl)-2-(2,2-dimethylpiperidin-4-yl)ethanone TFA salt]	≤ 100 nM
O=C(CC1CCNC(C(F)(F)F)C1)N1CCc2c(C(F)(F)F)nn(Cc3ccc(Cl)cc3F)c2C1 (stereo not shown) [Example 9-7, 1-(1-(4-Chloro-2-fluorobenzyl)-3-(trifluoromethyl)-4,5-dihydro-1H-pyrazolo[3,4-c]pyridin-6(7H)-yl)-2-(2-(trifluoromethyl)piperidin-4-yl)ethanone TFA salt]	≤ 100 nM
O=C(O)[C@@H]1CC(CC(=O)N2CCc3c(C(F)(F)F)nn(Cc4ccc(Cl)cc4F)c3C2)CN1 (stereo partly shown) [Example 9-8, (2s)-4-(2-(1-(4-Chloro-2-fluorobenzyl)-3-(trifluoromethyl)-4,5-dihydro-1H-pyrazolo[3,4-c]pyridin-6(7H)-yl)-2-oxoethyl)pyrrolidine-2-carboxylic acid TFA salt]	≤ 100 nM
NC12CCC(C(=O)N3CCc4c(C(F)(F)F)nn(Cc5ccc(F)cc5)c4C3)(CC1)CC2 [Example 9-9, (4-Aminobicyclo[2.2.2]octan-1-yl)(1-(4-fluorobenzyl)-3-(trifluoromethyl)-4,5-dihydro-1H-pyrazolo[3,4-c]pyridin-6(7H)-yl)methanone TFA salt]	100 to 250 nM
NC12CCC(CC(=O)N3CCc4c(C(F)(F)F)nn(Cc5ccc(F)cc5)c4C3)(CC1)CC2 [Example 9-10, 2-(4-Aminobicyclo[2.2.2]octan-1-yl)-1-(1-(4-fluorobenzyl)-3-(trifluoromethyl)-4,5-dihydro-1H-pyrazolo[3,4-c]pyridin-6(7H)-yl)ethanone TFA salt]	100 to 250 nM
CCC1CC(CC(=O)N2CCc3c(C(F)(F)F)nn(Cc4ccc(F)cc4)c3C2)CCN1 (stereo not shown) [Example 9-11, 2-(2-Ethylpiperidin-4-yl)-1-(1-(4-fluorobenzyl)-3-(trifluoromethyl)-4,5-dihydro-1H-pyrazolo[3,4-c]pyridin-6(7H)-yl)ethanone TFA salt]	≤ 100 nM
CCCC1CC(CC(=O)N2CCc3c(C(F)(F)F)nn(Cc4ccc(F)cc4)c3C2)CCN1 (stereo not shown) [Example 9-12, 1-(1-(4-Fluorobenzyl)-3-(trifluoromethyl)-4,5-dihydro-1H-pyrazolo[3,4-c]pyridin-6(7H)-yl)-2-(2-propylpiperidin-4-yl)ethanone acid TFA salt]	≤ 100 nM
O=C(CC1CCNC(C(F)(F)F)C1)N1CCc2c(C(F)(F)F)nn(Cc3ccc(F)cc3)c2C1 (stereo not shown) [Example 9-13, 1-(1-(4-Fluorobenzyl)-3-(trifluoromethyl)-4,5-dihydro-1H-pyrazolo[3,4-c]pyridin-6(7H)-yl)-2-(2-(trifluoromethyl)piperidin-4-yl)ethanone TFA salt]	≤ 100 nM
O=C(O)[C@H]1CC(CC(=O)N2CCc3c(C(F)(F)F)nn(Cc4ccc(Cl)cc4F)c3C2)CN1 (stereo partly drawn) [Example 9-14, (2R)-4-(2-(1-(4-Chloro-2-fluorobenzyl)-3-(trifluoromethyl)-4,5-dihydro-1H-pyrazolo[3,4-c]pyridin-6(7H)-yl)-2-oxoethyl)pyrrolidine-2-carboxylic acid TFA salt]	≤ 100 nM
O=C(CC1CNCCO1)N1CCc2c(C(F)(F)F)nn(Cc3ccc(Cl)cc3F)c2C1 (stereo not shown) [Example 9-15, 1-(1-(4-Chloro-2-fluorobenzyl)-3-(trifluoromethyl)-4,5-dihydro-1H-pyrazolo[3,4-c]pyridin-6(7H)-yl)-2-(morpholin-2-yl)ethanone TFA salt]	≤ 100 nM
O=C(CC1CNCCO1)N1CCc2c(C(F)(F)F)nn(Cc3ccc(F)cc3)c2C1 (stereo not shown) [Example 9-16, 1-(1-(4-Fluorobenzyl)-3-(trifluoromethyl)-4,5-dihydro-1H-pyrazolo[3,4-c]pyridin-6(7H)-yl)-2-(morpholin-2-yl)ethanone TFA salt]	≤ 100 nM
N[C@H]1CC[C@@H](CC(=O)N2CCc3c(C(F)(F)F)nn(Cc4ccc(Cl)cc4F)c3C2)CC1 [Example 9-17, 2-(cis-4-Aminocyclohexyl)-1-(1-(4-chloro-2-fluorobenzyl)-3-(trifluoromethyl)-4,5-dihydro-1H-pyrazolo[3,4-c]pyridin-6(7H)-yl)ethanone TFA salt]	≤ 100 nM
N[C@H]1CC[C@@H](CC(=O)N2CCc3c(C(F)(F)F)nn(Cc4ccc(F)cc4)c3C2)CC1 [Example 9-18, 2-(cis-4-Aminocyclohexyl)-1-(1-(4-fluorobenzyl)-3-(trifluoromethyl)-4,5-dihydro-1H-pyrazolo[3,4-c]pyridin-6(7H)-yl)ethanone TFA salt]	≤ 100 nM
N[C@H]1CC[C@H](CC(=O)N2CCc3c(C(F)(F)F)nn(Cc4ccc(Cl)cc4F)c3C2)CC1 [Example 9-19, 2-(trans-4-aminocyclohexyl)-1-(1-(4-chloro-2-fluorobenzyl)-3-(trifluoromethyl)-4,5-dihydro-1H-pyrazolo[3,4-c]pyridin-6(7H)-yl)ethanone TFA salt]	≤ 100 nM
N[C@H]1CC[C@H](CC(=O)N2CCc3c(C(F)(F)F)nn(Cc4ccc(F)cc4)c3C2)CC1 [Example 9-20, 2-(trans-4-Aminocyclohexyl)-1-(1-(4-fluorobenzyl)-3-(trifluoromethyl)-4,5-dihydro-1H-pyrazolo[3,4-c]pyridin-6(7H)-yl)ethanone TFA salt]	≤ 100 nM
O=C(CC1CC2CNCC2C1)N1CCc2c(C(F)(F)F)nn(Cc3ccc(Cl)cc3F)c2C1 (stereo not shown) [Example 9-21, 1-(1-(4-Chloro-2-fluorobenzyl)-3-(trifluoromethyl)-4,5-dihydro-1H-pyrazolo[3,4-c]pyridin-6(7H)-yl)-2-(octahydrocyclopenta[c]pyrrol-5-yl)ethanone TFA salt]	≤ 100 nM
CNC12CCC(C(=O)N3CCc4c(C(F)(F)F)nn(Cc5ccc(F)cc5)c4C3)(CC1)CC2 [Example 9-22, (1-(4-Fluorobenzyl)-3-(trifluoromethyl)-4,5-dihydro-1H-pyrazolo[3,4-c]pyridin-6(7H)-yl)(4-(methylamino)bicyclo[2.2.2]octan-1-yl)methanone TFA salt]	250 to 500 nM
O=C(CC1CCNC1)N1CCc2c(C(F)(F)F)nn(Cc3ccc(F)cc3)c2C1 (stereo not shown) [Example 9-23, 1-(1-(4-Fluorobenzyl)-3-(trifluoromethyl)-4,5-dihydro-1H-pyrazolo[3,4-c]pyridin-6(7H)-yl)-2-(pyrrolidin-3-yl)ethanone hydrochloride]	≤ 100 nM
CC1CC(CC(=O)N2CCc3c(C(F)(F)F)nn(Cc4ccc(Cl)cc4F)c3C2)CCN1C (stereo not shown) [Example 10-2, 1-(1-(4-Chloro-2-fluorobenzyl)-3-(trifluoromethyl)-4,5-dihydro-1H-pyrazolo[3,4-c]pyridin-6(7H)-yl)-2-(1,2-dimethylpiperidin-4-yl)ethanone TFA salt]	≤ 100 nM
CN1CCC(CC(=O)N2CCc3c(C(F)(F)F)nn(Cc4ccc(Cl)cc4F)c3C2)CC1(C)C (stereo not shown) [Example 10-3, 1-(1-(4-Chloro-2-fluorobenzyl)-3-(trifluoromethyl)-4,5-dihydro-1H-pyrazolo[3,4-c]pyridin-6(7H)-yl)-2-(1,2,2-trimethylpiperidin-4-yl)ethanone TFA salt]	≤ 100 nM
CN1CCC(CC(=O)N2CCc3c(C(F)(F)F)nn(Cc4ccc(Cl)cc4F)c3C2)CC1C(F)(F)F (stereo not shown) [Example 10-4, 1-(1-(4-Chloro-2-fluorobenzyl)-3-(trifluoromethyl)-4,5-dihydro-1H-pyrazolo[3,4-c]pyridin-6(7H)-yl)-2-(1-methyl-2-(trifluoromethyl)piperidin-4-yl)ethanone TFA salt]	≤ 100 nM
CN1CCC(CC(=O)N2CCc3c(C(F)(F)F)nn(Cc4ccc(F)cc4)c3C2)C1 (stereo not shown) [Example 10-5, 1-(1-(4-Fluorobenzyl)-3-(trifluoromethyl)-4,5-dihydro-1H-pyrazolo[3,4-c]pyridin-6(7H)-yl)-2-(1-methylpyrrolidin-3-yl)ethanone]	100 to 250 nM
CC(C)N1CCC(CC(=O)N2CCc3c(C(F)(F)F)nn(Cc4ccc(F)cc4)c3C2)C1 (stereo not shown) [Example 10-6, 1-(1-(4-Fluorobenzyl)-3-(trifluoromethyl)-4,5-dihydro-1H-pyrazolo[3,4-c]pyridin-6(7H)-yl)-2-(1-isopropylpyrrolidin-3-yl)ethanone]	≤ 100 nM
CCC1CC(CC(=O)N2CCc3c(C(F)(F)F)nn(Cc4ccc(F)cc4)c3C2)CCN1C (stereo not shown) [Example 10-7, 2-(2-Ethyl-1-methylpiperidin-4-yl)-1-(1-(4-fluorobenzyl)-3-(trifluoromethyl)-4,5-dihydro-1H-pyrazolo[3,4-c]pyridin-6(7H)-yl)ethanone TFA salt]	≤ 100 nM
CCCC1CC(CC(=O)N2CCc3c(C(F)(F)F)nn(Cc4ccc(F)cc4)c3C2)CCN1C (stereo not shown) [Example 10-8, 1-(1-(4-Fluorobenzyl)-3-(trifluoromethyl)-4,5-dihydro-1H-pyrazolo[3,4-c]pyridin-6(7H)-yl)-2-(1-methyl-2-propylpiperidin-4-yl)ethanone acid TFA salt]	≤ 100 nM

Same assay, conditions: IC50, FRET assay, FS-3 2 μM, ATX 1.0 μg/mL, 30 minutes preincubation, 2 hours reaction at room temperature

Compound	IC50
CN1C2CCC1CC(CC(=O)N1CCc3c(C(F)(F)F)nn(Cc4ccc(Cl)cc4F)c3C1)C2 (stereo not shown) [Example 10-1, 1-(1-(4-Chloro-2-fluorobenzyl)-3-(trifluoromethyl)-4,5-dihydro-1H-pyrazolo[3,4-c]pyridin-6(7H)-yl)-2-(8-methyl-8-aza-bicyclo[3.2.1]octan-3-yl)ethanone TFA salt]	≤ 100 nM
